Assay results reported in patent publication US20250017907A1, “METHOD FOR PREVENTING AND/OR TREATING LIVER FIBROSIS BY USING 6-METHOXYBENZOXAZOLINONE AND COIX LACHRYMA-JOBI L. EXTRACT COMPRISING 6-METHOXYBENZOXAZOLINONE” (Taichung District Agricultural Research and Extension …, priority 2023, published 2025).

Assays:
[1] = system: TAA-induced liver fibrotic C57BL/6J mice; assay: Liver weight, body weight and liver index; assay type: in vivo; settings: CX groups (20 and 50 mg/kg oral, 6 weeks); vs TAA group
Description: For tests of adlay extracts, mice were randomly divided into the following seven groups (n=6, per group): (1) No treatment group (NT, normal diet), (2) Thioacetamide group (TAA, 200 mg/kg, normal diet), (3) 10% adlay seed powder (ASP) group, (4) 1% adlay leaf powder (ALP) group, (5) 1% adlay seed polysaccharide (ASPS) group, (6) 0.025% adlay seed ethanolic extract (ASE) group and (7) 0.1% ASE group. NT group received pure saline, and other groups intraperitoneally injected with TAA dissolved into saline thrice a week.
(§1) For tests of CX, mice were randomly divided into the following four groups (n=8, per group): (1) NT group, (2) TAA group (200 mg/kg), (3) CX group (CX20, 20 mg/kg), and (4) CX group (CX50, 50 mg/kg). NT group received pure saline, and other groups intraperitoneally injected with TAA dissolved into saline thrice a week. Moreover, NT group and TAA group also received 5% propylene glycol, while CX groups received CX dissolved into 5% propylene glycol (prepared in 0.9% saline) by oral gavage once per day.
The procedure of the schematic diagram of animal experiment design in adlay groups is described as follows. To examine the effects of adlay on liver fibrosis, this example established a TAA-induced liver fibrotic C57BL/6J mouse model. FIG. 1 is a schematic diagram of animal experiment design in adlay groups. In this experiment, C57BL/6J mice were intraperitoneally injected with thioacetamide (TAA) to induce liver fibrosis. At six weeks of age, the mice were randomly divided into seven groups fed with different diets (NT, TAA, 10% ASP, 1% ALP, 1% ASPS, 0.025% ASE and 0.1% ASE, n=6). After co-feeding for 6 weeks during which intraperitoneal injection of TAA was administered thrice a week, the mice were finally sacrificed at 12 weeks of age. NT represents no treatment, ASP represents adlay seed powder, ALP represents adlay leaf powder, ASPS represents adlay seed polysaccharide, and ASE represents adlay seed ethanolic extract. […]

[2] = system: TAA-induced liver fibrotic C57BL/6J mice; assay: Serum TGF-β1 ELISA; assay type: in vivo; settings: CX groups (20 and 50 mg/kg oral, 6 weeks); vs TAA group
Description: as §1
To examine the effects of CX on liver fibrosis, this example established a TAA-induced liver fibrotic C57BL/6J mouse model. FIG. 6 is a schematic diagram of animal experiment design in 6-methoxybenzoxazolinone (6-MBOA) (CX) groups. For animal experiments, 6-week-old C57BL/6J mice were randomly divided into four groups including NT, TAA, CX20 (TAA+20 mg/kg CX), CX50 (TAA+50 mg/kg CX). (n=8 per group). […]
The procedure of TGF-β1 enzyme-linked immunosorbent assay (ELISA) is as follows. The level of TGF-β1 was detected in serum by using commercial mouse ELISA kits (Invitrogen, USA) and the working procedure was followed a standard sandwich ELISA protocol. […] After reacted with stop solution, immediately measured the color intensity at 450 nm by ELISA reader (TECAN, Switzerland).

[3] = system: TGF-β1-activated HSC-T6 cells; assay: Western blot of fibrotic and EMT-related proteins; assay type: cell-based, rat; settings: HSC-T6, TGF-β1 10 ng/mL, 24 h
Description: The procedure of cell cultures is as follows. HSC-T6 cell is an immortalized cell line isolated from transformed SV40 large T-antigen transformed primary stellate cells of male Sprague-Dawley rats. HSC-T6 cells were maintained in Dulbecco's Modified Eagle Medium (DMEM, Sigma-Aldrich, USA) containing 8% fetal bovine serum (FBS, HyClone, USA), 100 U/mL of penicillin, and 100 μg/mL of streptomycin (Gibco, USA).
For hepatic stellate cell (HSC) activation, cells were cultured for 24 h and then replaced with serum-free medium for 24 h, after that, treated with transforming growth factor beta 1 (TGF-β1) (10 ng/mL) in the presence or absence of CX (10-100 μM) or adlay leaf, root, and seed extracts (25 and 50 μg/mL) for 24 h, or 30 min for intracellular signal pathways.
The procedure of Western blot analysis is as follows. Cells were lysed in RIPA buffer with protease inhibitor and then centrifuged at 4° C., 12000 rpm for 10 min. Collected the supernatant and quantified the total protein concentration to 50 μg. After heating at 95° C. for 10 min, the protein samples were separated by SDS-PAGE gel, transferred to PVDF membrane, followed by blocking with 6% milk, incubated with primary antibodies at 4° C., overnight and secondary antibodies at room temperature for 1 h. Blot images were visualized on Amersham Imager 680 (Cytiva, USA) with ECL agent (GeneDireX, USA).

[4] = system: TGF-β1-activated HSC-T6 cells; assay: Wound healing assay; assay type: cell-based, rat
Description: The procedure of wound healing assay is as follows. HSC-T6 cells were seeded on the 6-well plates for 24 h, scraped monolayer cells with a 200 μL pipette tip and washed off non-adherent cells by PBS, changed serum-free medium for 24 h, then treated with TGF-β1 and CX for 0, 24, and 48 h.

SMILES: COc1ccc2[nH]c(=O)oc2c1 [CX, 6-methoxybenzoxazolinone]
- change in body weight caused by TAA [1]: did not significantly improve
- liver index (ratio of liver weight to body weight) [1]: decreased significantly
- liver weight [1]: reduced
- upregulation of TGF-β1 in serum caused by TAA (ELISA) [2]: significantly reduced
- TGF-β1-induced COL1A1 expression (Western blot) ([3]; CX 10-100 μM): reduced
- TGF-β1-induced fibronectin expression (Western blot) ([3]; CX 10-100 μM): reduced
- TGF-β1-induced α-SMA expression (Western blot) ([3]; CX 10-100 μM): reduced
- E-cadherin expression (Western blot) ([3]; CX even at the lowest dose (10 μM)): significantly enhanced
- TGF-β1-induced wound closure of 24 h ([4]; HSC-T6, CX at a dose of 100 μM): significantly reduced
- TGF-β1-induced wound closure of 48 h ([4]; HSC-T6, CX at a dose of 20-100 μM): reduced
